Measured values reported in patent US7737153B2, “Heteroaryloxy-substituted phenylaminopyrimidines as rho-kinase inhibitors” (Bayer Schering Pharma Aktiengesellschaft, priority 2002, dated 2010).

Assays:
[1] = tested on: isolated rings of the saphenous artery of rabbits; assay: Vessel-relaxing action in vitro, phenylephrin-induced contractions of isolated saphenous artery rings; set-up: species or system rabbit; settings: Oryctolagus cuniculus; contraction induced by 3×10^−8 g of phenylephrin/ml; concentration reducing control contraction by 50%
Description: (§1) The inhibition of the enzyme is investigated in an in vitro assay with recombinant Rho kinase II. The vessel-relaxing action is determined using phenylephrin-induced contractions of isolated rings of the saphenous artery of rabbits.
Vessel-Relaxing Action In Vitro
Individual 3-mm-wide rings of the isolated saphenous artery of rabbits are introduced into 5 ml organ baths with Krebs-Henseleit solution (37° C., gassed with carbogen). The vessel tone is monitored isometrically and registered. Contractions are induced by addition of 3×10^−8 g of phenylephrin/ml, which is washed out again after 4 min. After a number of control cycles, the rings are pre-incubated with the substance to be examined, with the dosage being increased for each further cycle, and the subsequent contraction is compared to the intensity of the last control contraction.

[2] = target: T1, recombinant Rho kinase II (ROKα) (Homo sapiens, UniProt O75116); assay: Inhibition of recombinant Rho kinase II (ROKα), 33P uptake into S6 substrate peptide; assay type: biochemical; settings: 33P-ATP, S6 phosphate-acceptor peptide, 20 min at 37° C., vs solvent control
T1 construct: purchased Upstate Biotechnology
Description: as §1
Inhibition of Recombinant Rho Kinase II (ROKα)
The activity of Rho kinase is determined by the uptake of ^33P phosphate into a substrate peptide. To this end, commercially available Rho kinase II (Upstate Biotechnology) is pre-incubated at 37° C. in the presence of the S6 phosphate-acceptor peptide with the test substances or a solvent control for 10 min. The kinase reaction is then started by addition of ^33P-labelled ATP. After 20 min at 37° C., the reaction is stopped by addition of H3PO4. Aliquots are pipetted onto filters and the filters are washed and then covered with scintillator. The radioactivity of the ^33P-labelled peptides bound to the filter is measured in a Micro-Beta counter.

T1 sequence (O75116 whole entry): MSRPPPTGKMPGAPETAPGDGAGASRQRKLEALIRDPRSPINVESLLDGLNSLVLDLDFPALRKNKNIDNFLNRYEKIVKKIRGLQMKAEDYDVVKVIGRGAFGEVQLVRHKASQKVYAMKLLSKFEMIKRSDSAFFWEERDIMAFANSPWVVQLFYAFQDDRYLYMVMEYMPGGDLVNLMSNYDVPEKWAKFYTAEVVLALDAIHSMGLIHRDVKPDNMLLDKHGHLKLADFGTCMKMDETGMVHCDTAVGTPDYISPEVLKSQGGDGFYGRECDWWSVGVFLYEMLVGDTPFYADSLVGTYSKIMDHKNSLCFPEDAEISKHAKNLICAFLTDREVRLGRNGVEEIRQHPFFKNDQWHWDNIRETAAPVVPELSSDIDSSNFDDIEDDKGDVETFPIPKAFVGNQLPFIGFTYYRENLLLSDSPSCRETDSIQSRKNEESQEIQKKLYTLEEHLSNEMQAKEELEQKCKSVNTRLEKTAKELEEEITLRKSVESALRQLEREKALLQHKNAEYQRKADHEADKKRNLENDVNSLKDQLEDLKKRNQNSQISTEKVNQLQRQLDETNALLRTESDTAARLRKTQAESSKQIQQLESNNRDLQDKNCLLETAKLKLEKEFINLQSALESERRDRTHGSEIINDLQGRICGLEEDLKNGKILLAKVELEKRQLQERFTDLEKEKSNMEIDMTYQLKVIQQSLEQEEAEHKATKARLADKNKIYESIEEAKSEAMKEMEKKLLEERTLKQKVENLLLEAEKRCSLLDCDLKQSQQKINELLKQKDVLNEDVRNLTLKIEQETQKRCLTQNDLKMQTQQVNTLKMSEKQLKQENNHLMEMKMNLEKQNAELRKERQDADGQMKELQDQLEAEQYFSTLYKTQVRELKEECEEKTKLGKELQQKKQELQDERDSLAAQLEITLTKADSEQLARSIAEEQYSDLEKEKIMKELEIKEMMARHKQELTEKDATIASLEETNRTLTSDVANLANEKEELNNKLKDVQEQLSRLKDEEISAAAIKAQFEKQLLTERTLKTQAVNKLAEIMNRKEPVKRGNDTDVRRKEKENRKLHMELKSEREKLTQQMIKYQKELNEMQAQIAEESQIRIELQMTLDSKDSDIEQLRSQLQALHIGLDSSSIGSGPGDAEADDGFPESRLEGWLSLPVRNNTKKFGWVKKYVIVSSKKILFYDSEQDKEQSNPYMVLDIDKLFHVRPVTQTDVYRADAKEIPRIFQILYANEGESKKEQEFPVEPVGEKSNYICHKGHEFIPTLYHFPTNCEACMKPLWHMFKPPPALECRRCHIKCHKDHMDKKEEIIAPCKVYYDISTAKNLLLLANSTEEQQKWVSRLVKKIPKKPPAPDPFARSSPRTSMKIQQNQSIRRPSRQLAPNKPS

SMILES | IC50 [1] [nM] | IC50 [2] [nM]
Cc1n[nH]c2cccc(Oc3ccc(Nc4cc(-c5ccncc5)nc(N)n4)cc3F)c12 [Example 1, N-[2-Amino-6-(4-pyridinyl)-4-pyrimidinyl]-N-{3-fluoro-4-[(3-methyl-1H-indazol-4-yl)oxy]phenyl}amine] | 6800 | 
Nc1nc(Nc2ccc(Oc3ccc4[nH]ncc4c3)c(Cl)c2)cc(-c2ccncc2)n1 [Example 6] | 4330 | 30
Nc1nc(Nc2ccc(Oc3ccc4cn[nH]c4c3)c(F)c2)cc(-c2ccncc2)n1 [Example 7] | 6700 | 
Nc1nc(Nc2ccc(Oc3ccc4[nH]ncc4c3)c(Cl)c2)cc(N[C@@H]2CCCC[C@H]2N)n1 [Example 15] |  | 20
Nc1nc(Nc2ccc(Oc3ccc4[nH]ncc4c3)c(F)c2)cc(N[C@@H]2CCCC[C@H]2N)n1 [Example 16] | 6900 | 50
Nc1nc(Nc2ccc(Oc3ccc4[nH]ncc4c3)c(F)c2)cc(-c2ccccc2)n1 [Example 18, N-(2-Amino-6-phenyl-4-pyrimidinyl)-N-[3-fluoro-4-(1H-indazol-5-yloxy)phenyl]amine] |  | 43

Further lines, results first:

IC50 [1] [nM] | IC50 [2] [nM] | SMILES
1020 | 20 | Nc1nc(Nc2ccc(Oc3ccc4[nH]ncc4c3)c(F)c2)cc(-c2ccncc2)n1 [Example 5, N-[2-Amino-6-(4-pyridinyl)-4-pyrimidinyl]-N-[3-fluoro-4-(1H-indazol-5-yloxy)-phenyl]amine]
350 | 6 | Nc1nc(Nc2ccc(Oc3ccc4[nH]ncc4c3)c(F)c2)cc(N2C[C@H]3CCCN[C@H]3C2)n1 [Example 11, 6-[(4aR,7aR)-Octahydro-6H-pyrrolo[3,4-b]pyridin-6-yl]-N-4-[3-fluoro-4-(1H-indazol-5-yloxy)phenyl]-2,4-pyrimidinediamine]
2700 | 55 | Nc1nc(Nc2ccc(Oc3ccc4[nH]ncc4c3)c(F)c2)cc(N2C[C@@H]3CCCN[C@@H]3C2)n1 [Example 12]
2000 | 9 | Nc1nc(Nc2ccc(Oc3ccc4[nH]ncc4c3)c(Cl)c2)cc(N2C[C@H]3CCCN[C@H]3C2)n1 [Example 13]
260 | 1 | CN(CCO)CC1CCN(c2cc(Nc3ccc(Oc4ccnc5[nH]ccc45)c(F)c3)nc(N)n2)C1 (centres unmarked) [Example 68]
150 |  | CC(C)(C)NCc1cc(Nc2ccc(Oc3ccnc4[nH]ccc34)c(F)c2)nc(N)n1 [Example 116]
80 |  | Nc1nc(CN2CCCCC2)cc(Nc2ccc(Oc3ccnc4[nH]ccc34)c(F)c2)n1 [Example 117, N^4-[3-Fluoro-4-(1H-pyrrolo[2,3-b]pyridin-4-yloxy)phenyl]-6-(piperidin-1-ylmethyl)-pyrimidine-2,4-diamine]
